{
  "source": "patent US20060276416A1",
  "about": "“Methods and compositions for treating flushing and drug induced weight gain” (Sirtris Pharmaceuticals, Inc., priority 2005, published 2006)",
  "key": {"recombinant SIR-2.1": {"target": "recombinant SIR-2.1 (Caenorhabditis elegans, UniProt Q21921)", "sequence (Q21921 whole entry)": "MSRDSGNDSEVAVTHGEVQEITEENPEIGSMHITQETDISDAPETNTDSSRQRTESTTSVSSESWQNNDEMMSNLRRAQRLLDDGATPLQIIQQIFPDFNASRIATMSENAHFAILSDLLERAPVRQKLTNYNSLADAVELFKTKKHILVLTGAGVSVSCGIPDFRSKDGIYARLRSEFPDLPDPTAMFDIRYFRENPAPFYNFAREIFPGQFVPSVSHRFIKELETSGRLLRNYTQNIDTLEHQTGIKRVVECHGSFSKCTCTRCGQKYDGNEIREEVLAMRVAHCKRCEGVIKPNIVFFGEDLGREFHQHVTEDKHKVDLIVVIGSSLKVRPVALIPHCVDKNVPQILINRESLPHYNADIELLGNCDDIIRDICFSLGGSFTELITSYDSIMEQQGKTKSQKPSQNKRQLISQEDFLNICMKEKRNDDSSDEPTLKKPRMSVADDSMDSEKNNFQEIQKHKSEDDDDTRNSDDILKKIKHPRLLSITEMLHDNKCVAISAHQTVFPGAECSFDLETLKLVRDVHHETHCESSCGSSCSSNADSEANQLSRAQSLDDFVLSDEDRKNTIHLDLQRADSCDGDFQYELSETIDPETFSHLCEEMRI", "assay": "SIR-2.1 deacetylation assay (Fluor de Lys)", "assay_type": "biochemical, C. elegans", "quoted_text": "From 0.1 to 1 μg of SIR-2.1 and 1 μg of dSir2 were used per deacetylation assay as previously described with modifications (SIR-2.1: 200 μM NAD^+, 10 μM Fluor de Lys, FdL; dSir2: 25 μM NAD^+, 10 μM FdL)^26. STACs were dissolved at 10 mM in dimethylsulfoxide (DMSO) the day of the assay. In vitro fluorescence assay results were read in 96-well microplates (Corning Costar 3693) with a Wallac Victor Multilabel counter (Perkin Elmer, excitation at 360 nm, emission at 450 nm). Drosophila S2 cells were grown in Schneider media with fetal calf serum at 23-28° C., seeded at 9×10^4 cells/well, grown overnight and then exposed to 1 μM TSA, 500 μM polyphenols, and 200 μM FdL for 2 hr. Deacetylation of FdL with lysate from whole cells was determined as described^4. Unless otherwise indicated all initial rate measurements were means of three or more replicates obtained with single incubation times, at which point 5% or less of the substrate initially present was deacetylated."}, "phosphorylation of ACC": {"system": "phosphorylation of ACC", "assay": "ACC phosphorylation Western in 3T3-L1 adipocytes", "assay_type": "cell-based", "details": "day 6 and day 10 of differentiation", "protocol": "ACC was also phosphorylated when the cells were incubated in serum free media overnight before harvesting (lanes marked “SF”). The reason for the extra band in the SIRT1 blot at day 6 is unknown, but it may be a modified form of SIRT1. Tubulin served as a loading control."}, "recombinant GST-Sir2": {"target": "recombinant GST-Sir2 (Saccharomyces cerevisiae, UniProt P06700)", "sequence (P06700 whole entry)": "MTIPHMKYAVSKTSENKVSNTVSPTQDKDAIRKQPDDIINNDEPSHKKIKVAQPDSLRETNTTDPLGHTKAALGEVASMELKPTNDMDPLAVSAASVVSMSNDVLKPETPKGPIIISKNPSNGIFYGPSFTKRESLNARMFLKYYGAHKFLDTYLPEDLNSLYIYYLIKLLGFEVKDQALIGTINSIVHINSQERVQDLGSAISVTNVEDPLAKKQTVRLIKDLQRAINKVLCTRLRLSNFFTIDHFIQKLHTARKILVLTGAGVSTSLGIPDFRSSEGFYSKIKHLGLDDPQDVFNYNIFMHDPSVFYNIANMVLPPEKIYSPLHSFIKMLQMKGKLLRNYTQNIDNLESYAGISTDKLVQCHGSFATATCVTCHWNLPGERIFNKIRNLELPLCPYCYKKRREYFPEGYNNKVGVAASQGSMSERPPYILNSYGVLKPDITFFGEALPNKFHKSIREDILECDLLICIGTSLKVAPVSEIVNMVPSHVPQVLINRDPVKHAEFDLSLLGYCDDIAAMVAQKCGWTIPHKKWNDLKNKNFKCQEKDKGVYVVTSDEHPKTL", "assay": "Sir2 deacetylation assay", "assay_type": "biochemical, S. cerevisiae", "protocol": "(§1) Average lifespan for wild type, 22.9 generations, quercetin, 23.4; piceatannol.\nHis6-tagged recombinant SIRT1 and GST-tagged recombinant Sir2 were prepared as previously described^26. From 0.1 to 1 μg of SIRT1 and 1.5 μg of Sir2 were used per deacetylation assay (in 50 μl total reaction) as previously described^26. SIRT1 assays and certain of those for Sir2 employed the p53-382 acetylated substrate (‘Fluor de Lys-SIRT1’, BIOMOL) rather than FdL.\nThemed compound libraries (BIOMOL) were used for primary and secondary screening. Most polyphenol compounds were dissolved at 10 mM in dimethylsulfoxide (DMSO) on the day of the assay. For water soluble compounds and negative controls, 1% v/v DMSO was added to the assay. In vitro fluorescence assay results were read in white ½-volume 96-well microplates (Corning Costar 3693) with a CytoFluor™ II fluorescence plate reader (PerSeptive Biosystems, Ex. 360 nm, Em. 460 nm, gain=85). HeLa cells were grown and the cellular deacetylation assays were performed and read, as above, but in full-volume 96-well microplates (Corning Costar 3595). […] Calculation of net fluorescence increases included subtraction of a blank value, which in the case of Sir2 was obtained by omitting the enzyme from the reaction and in the case of SIRT1 by adding an inhibitor (200 μM suramin or 1 mM nicotinamide) to the reaction prior to the acetylated substrate. […]"}, "D. melanogaster": {"system": "D. melanogaster", "assay": "D. melanogaster survival (lifespan) assay", "assay_type": "in vivo", "protocol": "Survival assays were conducted independently with adult D. melanogaster in two laboratories. In the first laboratory, all trials used an yw marked wild-type strain. Larvae were reared on standard cornmeal-sugar-yeast (CSY) agar diet (cornmeal 5%, sucrose 10.5%, SAF yeast 2%, and agar 0.7%). Newly eclosed adults were placed in 1 L demography cages with approximately 75 males and 75 females. Three to four replicate 1 L demography cages were used for each treatment group in each trial. Every two days, dead flies were removed and scored, and food vials were replenished. Food vials contained cornmeal-sugar-yeast diet with SAF yeast as either 2% or 3% by weight. Test compounds in 100 μl of EtOH (or blank EtOH in controls) were mixed into melted aliquots of the adult food media to make a final concentration of 0, 10 or 100 μM. Fresh stock solutions and adult media were prepared weekly. In the second laboratory, lifespan trials were conducted with the wild type strain Canton-S, dSir2^4.5 and dSir2^5.26 (S. Smolik, University of Oregon), dSir2^17 (S. Astrom, Stockholm University, Sweden), and dSir2^KG00871 (Drosophila Stock Center, Bloomington, Ind.). Larvae for all tests were reared on standard cornmeal-sugar-yeast diet. Newly eclosed adults were incubated in plastic shell vials containing 5 ml of 15% sugar-yeast diet (15% SY) or 5% sugar-yeast (5% SY) diet (15% SY: 15% yeast, 15% sucrose, 2% agar; 5% SY: 5% yeast, 5% sucrose, 2% agar as per Ref.^20). In all trials, ˜20 males with ˜20 females were placed into each of 10 vials/treatment group. Every two days, flies were passed into new vials and dead flies were counted. […] Final compound concentrations were 0, 10, 100 or 200 μM. Fresh stock solution and adult media was prepared weekly."}, "S. cerevisiae": {"system": "S. cerevisiae", "assay": "Yeast replicative lifespan by micro-manipulation", "assay_type": "cell-based", "protocol": "as §1\nLifespan measurements were performed using PSY316AT MATα as previously described^35. All compounds for lifespan analyses were dissolved in 95% ethanol and plates were dried and used within 24 hours. Prior to lifespan analysis, cells were pre-incubated on their respective media for at least 15 hours. Following transfer to a new plate, cells were equilibrated on the medium for a minimum of 4 hours prior to micro-manipulating them. At least 30 cells were examined per experiment and each experiment was performed at least twice. Statistical significance of lifespan differences was determined using the Wilcoxon rank sum test. Differences are stated to be significant when the confidence is higher than 95%."}},
  "data": [
    {"smiles": "Oc1ccc(/C=C/c2cc(O)cc(O)c2)cc1", "note": "[Resveratrol, 3,5,4′-Trihydroxy-trans-stilbene]", "values": [
      {"measurement": "Km of SIR-2.1 for the co-substrate NAD+", "setting": "recombinant SIR-2.1; 100 μM resveratrol, 10 μM Fluor de Lys", "value": "lowered"},
      {"measurement": "Stimulation of deacetylation", "setting": "recombinant SIR-2.1; dose-dependent, maximum", "value": "up to 2.5 fold"},
      {"measurement": "Phosphorylation of ACC", "setting": "phosphorylation of ACC", "value": "stimulated the phosphorylation of ACC"},
      {"measurement": "Concentrations at which inhibition was seen", "setting": "recombinant GST-Sir2", "value": "> 100", "unit": "µM"},
      {"measurement": "Optimum concentration of activator", "setting": "recombinant GST-Sir2", "value": "2 to 5", "unit": "µM"},
      {"measurement": "Lifespan increase", "setting": "D. melanogaster; Canton-S/dSir2 KG0087, maximum", "value": "up to 17%"},
      {"measurement": "Lifespan extension (in words)", "setting": "D. melanogaster; dSir2 4.5/5.26 (no functional dSir2) or dSir2 17/KG00871 (severely decreased), 100 μM", "value": "failed to extend lifespan"},
      {"measurement": "Increase of longevity (in words)", "setting": "D. melanogaster; flies homozygous for a hypomorphic dSir2 allele", "value": "small but statistically significant amount"},
      {"measurement": "Longevity under restricted diet", "setting": "D. melanogaster; restricted diet", "value": "neither resveratrol nor fisetin further increased longevity"},
      {"measurement": "Lifespan extension", "setting": "D. melanogaster; wild type strains, males and females, independent tests, maximum", "value": "up to 29%"},
      {"measurement": "Average lifespan", "setting": "S. cerevisiae; glucose-restricted+resveratrol (CR+R)", "value": 39.9, "unit": "generations"},
      {"measurement": "Average lifespan", "setting": "S. cerevisiae; growth on resveratrol 10 μM, wild type untreated 21.0", "value": 35.7, "unit": "generations"},
      {"measurement": "Average lifespan", "setting": "S. cerevisiae; growth on resveratrol 100 μM, wild type untreated 21.0", "value": 29.4, "unit": "generations"},
      {"measurement": "Average lifespan", "setting": "S. cerevisiae; growth on resveratrol 500 μM, wild type untreated 21.0", "value": 29.3, "unit": "generations"},
      {"measurement": "Average lifespan", "setting": "S. cerevisiae; pnc1Δ+resveratrol, pnc1Δ 19.2", "value": 33.1, "unit": "generations"},
      {"measurement": "Average lifespan", "setting": "S. cerevisiae; sir2Δ+resveratrol, sir2Δ 9.9", "value": 10.0, "unit": "generations"},
      {"measurement": "Average lifespan", "setting": "S. cerevisiae; wild type+resveratrol, wild type untreated 19.0", "value": 37.8, "unit": "generations"}
    ]}
  ]
}
